Assay results published in US20230135215A1, “COMPOUNDS AS CDK2/4/6 INHIBITORS” (Fochon Biosciences, Ltd., priority 2020, published 2023).

How the values were obtained:
[1] = system: HCC1806 cells; assay: Cell proliferation assay (MTS), HCC1806 (CDK4/6 independent) cells; type: cell-based; details: Homo sapiens, HCC1806 (CDK4/6 independent) cell proliferation inhibition, 120 h incubation, absorbance 490 nm
Source text: (§1) MTS testing kit was purchased from Promega (Madison, Wis., USA). The RPMI-1640, DMEM, Fetal bovine serum and Penicillin-Streptomycin were purchased from BI (Biological Industries, Beit Haemek, Israel). Dimethyl sulfoxide (DMSO) was purchased from Sigma (St. Louis, Mo., USA).
(§2) To investigate whether a compound is able to inhibit the activity of CDK2/4/6 in cells, we developed a mechanism-based assay using HCC1806 (CDK4/6 independent) and Hs68 (CDK4/6 dependent) cell lines. In this assay, inhibition of CDK2/4/6 was detected by the cell proliferation inhibition of HCC1806 and Hs68 cells. HCC806 and HS68 cells cultured in PRMI-1640 and DMEM supplemented with 10% fetal bovine serum respectively to 40-80% confluence were collected and plated into 96-well plates at desired cell density of 5×10^3/mL. Plates were incubated at 37° C., with 5% CO2 for 24 h. Compounds were serially diluted and added to the plates with the final concentrations as 10000, 3333.3, 1111.1, 370.4, 123.5, 41.2, 13.7, 4.6 and 1.5 nM. Plates were incubated at 37° C., with 5% CO2 for 120 h. A mixture of 20 μl MTS/100 μl medium were added to each well and the plates were incubated at 37° C., with 5% CO2 for exactly 2 h. The absorbance was measured by a microplate reader at 490 nm. IC50 was calculated using GraphPad Prism 5.0 software.

[2] = system: Hs68 cells; assay: Cell proliferation assay (MTS), Hs68 (CDK4/6 dependent) cells; type: cell-based; details: Homo sapiens, Hs68 (CDK4/6 dependent) cell proliferation inhibition, 120 h incubation, absorbance 490 nm
Source text: as §1, §2

SMILES | IC50 [1] | IC50 [2]
CS(=O)(=O)N1CCC(Nc2ncc3cc(F)c(=O)n(C4CCCC45CC5)c3n2)CC1 (stereo not drawn) [Example 22, 6-fluoro-2-((1-(methylsulfonyl)piperidin-4-yl)amino)-8-(spiro[2.4]heptan-4-yl) pyrido[2,3-d]pyrimidin-7(8H)-one] | 318 nM | –
CS(=O)(=O)N1CCC(Nc2ncc3ccc(=O)n([C@H]4CCCC45CC5)c3n2)CC1 [Example 24, (S)-2-((1-(methylsulfonyl)piperidin-4-yl)amino)-8-(spiro[2.4]heptan-4-yl)pyrido[2,3-d]pyrimidin-7(8H)-one] | 78 nM | 437 nM
CS(=O)(=O)N1CCC(Nc2ncc3cc(C(F)F)c(=O)n([C@@H]4CCCC45CC5)c3n2)CC1 [Example 19, (R)-6-(difluoromethyl)-2-((1-(methyl-sulfonyl)piperidin-4-yl)amino)-8-(spiro[2.4]heptan-4-yl)pyrido[2,3-d]pyrimidin-7(8H)-one] | 139 nM | –
CS(=O)(=O)N1CCC(Nc2ncc3ccc(=O)n(C4CCCC45CC5)c3n2)CC1 (stereo not drawn) [Example 1, 2-((1-(Methylsulfonyl)piperidin-4-yl)amino)-8-(spiro[2,4]heptan-4-yl)pyrido[2,3-d]pyrimidin-7(8H)-one] | 379 nM | 318 nM
CS(=O)(=O)N1CCC(Nc2ncc3cc(Br)c(=O)n(C4CCCC45CC5)c3n2)CC1 (stereo not drawn) [Example 8, 6-Bromo-2-((1-(methylsulfonyl)piperidin-4-yl)amino)-8-(spiro[2,4]heptan-4-yl)pyrido[2,3-d]pyrimidin-7(8H)-one] | 305 nM | 105 nM
CS(=O)(=O)N1CCC(Nc2ncc3cc(Cl)c(=O)n(C4CCCC45CC5)c3n2)CC1 (stereo not drawn) [Example 7, 6-Chloro-2-((1-(methylsulfonyl)piperidin-4-yl)amino)-8-(spiro[2,4]heptan-4-yl)pyrido[2,3-d]pyrimidin-7(8H)-one] | 308 nM | 233 nM
CNS(=O)(=O)N1CCC(Nc2ncc3ccc(=O)n([C@H]4CCCC45CC5)c3n2)CC1 [Example 31, (S)-N-methyl-4-((7-oxo-8-(spiro[2.4]heptan-4-yl)-7,8-dihydropyrido[2,3-d]pyrimidin-2-yl)amino)piperidine-1-sulfonamide] | 118 nM | 418 nM
Cc1cc2cnc(NC3CCN(S(C)(=O)=O)CC3)nc2n(C2CCCC23CC3)c1=O (stereo not drawn) [Example 2, 6-Methyl-2-((1-(methylsulfonyl)piperidin-4-yl)amino)-8-(spiro[2,4]heptan-4-yl)pyrido[2,3-d]pyrimidin-7(8H)-one] | – | 322 nM
CS(=O)(=O)N1CCC(Nc2ncc3ccc(=O)n([C@@H]4CCCC45CC5)c3n2)CC1 [Example 23, (R)-2-((1-(methylsulfonyl)piperidin-4-yl)amino)-8-(spiro[2.4]heptan-4-yl)pyrido[2,3-d]pyrimidin-7(8H)-one] | 150 nM | 489 nM
CS(=O)(=O)N1CCC(Nc2ncc3cc(C(F)F)c(=O)n(C4CCCC45CC5)c3n2)CC1 (stereo not drawn) [Example 18, 6-(difluoromethyl)-2-((1-(methylsulfonyl)piperidin-4-yl)amino)-8-(spiro[2.4]heptan-4-yl)pyrido[2,3-d]pyrimidin-7(8H)-one] | 233 nM | –
CS(=O)(=O)N1CCC(Nc2ncc3cc(C(F)F)c(=O)n([C@H]4CCCC45CC5)c3n2)CC1 [Example 20, (S)-6-(difluoromethyl)-2-((1-(methylsulfonyl)piperidin-4-yl)amino)-8-(spiro[2.4]heptan-4-yl)pyrido[2,3-d]pyrimidin-7(8H)-one] | 211 nM | –
NS(=O)(=O)N1CCC(Nc2ncc3ccc(=O)n([C@H]4CCCC45CC5)c3n2)CC1 [Example 30, (S)-4-((7-oxo-8-(spiro[2.4]heptan-4-yl)-7,8-dihydropyrido[2,3-d]pyrimidin-2-yl)amino)piperidine-1-sulfonamide] | 409 nM | –
